Results on 10 molecules are retold here after ChEMBL document CHEMBL1201862, “PubChem BioAssay data set” (2004).

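Method: 48-hour compound exposure of cells in 96-well plates, five concentrations, linear interpolation of endpoints. GI50 = concentration required for 50% inhibition of growth.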 The source made the active and inactive calls. Rule as the data show it: active = GI50 up to about 1.1 µM and inactive = higher.

Test systems include NCI-H460; OVCAR-3; A549; SNB-19; K562; NCI-H226; SF-268; CCRF-CEM; CAKI-1; M14; DU-145; PC-3; COLO 205; HOP-92; SR; MDA-MB-231; IGROV-1; RXF 393; MOLT-4; SK-MEL-28.
Assay in all cases: NCI anticancer screen, dose series, 48 h

Regarding `Cc1[nH]c2ncn(Nc3ccccc3)c(=N)c2c1Cc1ccccc1`, the GI50 is 14.3 µM (inactive) in the test with NCI-H460; 30.1 µM (inactive) in the test with OVCAR-3; 1.48 µM (inactive) with A549; > 51.3 µM (inactive) in the test on SNB-19; 0.0578 µM (active) in the test with K562; > 55 µM (inactive) in the test on NCI-H226. Besides, the GI50 is > 100 µM (inactive) in the test on SF-268; 37.3 µM (inactive) with CCRF-CEM; 24.4 µM (inactive) in the test with CAKI-1; 0.162 µM (active) in the test on M14; 35.4 µM (inactive) in the test on DU-145; 23.4 µM (inactive) in the test on PC-3. Moreover, the GI50 in the test with COLO 205 is 0.0998 µM (active); in the test on HOP-92 it was 33.1 µM (inactive); with SR, 21.2 µM (inactive); in the test on MDA-MB-231, 61.7 µM (inactive); with IGROV-1, 3.85 µM (inactive); in the test on RXF 393 it was 30.6 µM (inactive). In addition, the GI50 in the test with MOLT-4 is 35.6 µM (inactive).

`CCN(CC)CC(O)CNc1ccc(NCC2CO2)c2c1C(=O)c1ccccc1C2=O` (stereo not drawn): the GI50 with NCI-H460 is 0.695 µM (active); in the test on OVCAR-3 it was 0.46 µM (active); in the test with A549 it was 1.03 µM (active); in the test with SK-MEL-28 it was 1.11 µM (active); in the test on SNB-19, 1.68 µM (inactive); in the test on K562, 0.0479 µM (active). For the same molecule, the GI50 in the test with NCI-H226 is 1.32 µM (inactive); in the test with SF-268, 0.0619 µM (active); in the test with CAKI-1, 0.619 µM (active); in the test with M14, 0.199 µM (active); in the test with DU-145, 1.63 µM (inactive); in the test with PC-3, 0.74 µM (active). In addition, the GI50 was 0.906 µM (active) in the test with COLO 205; 1.75 µM (inactive) in the test with HOP-92; 0.055 µM (active) in the test on SR; 0.536 µM (active) with MDA-MB-231; 1.63 µM (inactive) in the test on IGROV-1; 0.397 µM (active) in the test with RXF 393.

For the molecule `COC(=O)C1=C(O)C(C(=O)OC)[C@]2(O)[C@H](C(=O)OC)[C@H]1C[C@@H](c1ccc(OC)c(OC)c1)[C@H]2C(=O)OC` (stereo partly drawn), the GI50 is 14.7 µM (inactive) with NCI-H460; 16.5 µM (inactive) with OVCAR-3; 11.6 µM (inactive) in the test with A549; 19.2 µM (inactive) in the test on SK-MEL-28; 14.6 µM (inactive) in the test with SNB-19; 13.6 µM (inactive) in the test with K562. In addition, the GI50 with NCI-H226 is 4.79 µM (inactive); in the test on CCRF-CEM, 0.129 µM (active); in the test on CAKI-1, 25.8 µM (inactive); with M14 it was 12.3 µM (inactive); in the test on DU-145, 19.9 µM (inactive); in the test with PC-3, 25.4 µM (inactive). The GI50 is 17.9 µM (inactive) in the test on COLO 205; 21.2 µM (inactive) with HOP-92; 14 µM (inactive) with SR; 34.2 µM (inactive) with MDA-MB-231; 26.1 µM (inactive) with IGROV-1; 14.3 µM (inactive) in the test with RXF 393. In addition, in the test on MOLT-4, the GI50 was 17.5 µM (inactive).

As to `NNC(=O)CC(=O)Nc1ccccc1Cl`, the GI50 in the test on NCI-H460, in the test on OVCAR-3, in the test with A549, in the test with SK-MEL-28, in the test with SNB-19 and in the test on K562 was > 100 µM (inactive) in each case. The GI50 with SF-268, in the test on CCRF-CEM, in the test with CAKI-1, in the test with DU-145, in the test on PC-3 and in the test on COLO 205 was > 100 µM (inactive) each time. Besides, the GI50 with HOP-92, with SR, with MDA-MB-231, in the test with IGROV-1, in the test with RXF 393 and in the test with MOLT-4 was > 100 µM (inactive) throughout.

Take `NCC1OC(OC2C(N)CC(N)C(O)C2OC2OC(CO)C(O)C2O)C(N)C(O)C1O` (stereo not drawn): the GI50 in the test with NCI-H460 is > 50 µM (inactive); in the test with OVCAR-3 it was > 100 µM (inactive); in the test on A549, > 100 µM (inactive); in the test with SK-MEL-28 it was > 100 µM (inactive); in the test with SNB-19, > 50 µM (inactive); with K562 it was > 100 µM (inactive). For the same molecule, the GI50 is > 100 µM (inactive) in the test with NCI-H226; > 100 µM (inactive) in the test on SF-268; > 100 µM (inactive) in the test on CCRF-CEM; > 100 µM (inactive) with CAKI-1; > 50 µM (inactive) in the test with M14; > 100 µM (inactive) in the test with DU-145. For the same molecule, the GI50 with PC-3, with HOP-92, with SR, with MDA-MB-231, in the test with IGROV-1 and in the test with RXF 393 was > 50 µM (inactive) in each case. Further, the GI50 in the test on MOLT-4 was > 50 µM (inactive).

As to `C=CCc1cc(C=C(C#N)C#N)cc(OC)c1O`, the GI50 in the test on NCI-H460 is > 100 µM (inactive); in the test on OVCAR-3 it was 35.2 µM (inactive); with A549 it was > 100 µM (inactive); with SK-MEL-28, > 100 µM (inactive); in the test with SNB-19, > 100 µM (inactive); in the test on K562, 62.2 µM (inactive). The GI50 was > 100 µM (inactive) in the test with NCI-H226; 46.9 µM (inactive) with CCRF-CEM; > 100 µM (inactive) in the test on CAKI-1; > 100 µM (inactive) with M14; > 100 µM (inactive) in the test on DU-145; 35.8 µM (inactive) in the test with PC-3. Moreover, the GI50 in the test with COLO 205 was 52.6 µM (inactive); with HOP-92, 33.5 µM (inactive); with SR, 42.7 µM (inactive); in the test with MDA-MB-231, > 100 µM (inactive); in the test with IGROV-1, > 100 µM (inactive); in the test on RXF 393, 24.8 µM (inactive). The GI50 in the test with MOLT-4 is 40 µM (inactive).

In the case of `CCOC(=O)CC[C@H](NC(=O)c1ccc(CNc2nc3cc(C(F)(F)F)ccc3nc2C(=O)OCC)cc1)C(=O)OCC`, the GI50 was 15.5 µM (inactive) in the test with NCI-H460; > 38.8 µM (inactive) in the test with OVCAR-3; 34.7 µM (inactive) with A549; > 69.8 µM (inactive) with SK-MEL-28; 9.14 µM (inactive) with SNB-19; 70.3 µM (inactive) in the test with K562. Moreover, the GI50 with SF-268 was 12.4 µM (inactive); with CCRF-CEM, > 100 µM (inactive); in the test on CAKI-1 it was 14.3 µM (inactive); in the test with M14, > 43.7 µM (inactive); in the test with DU-145 it was > 81.8 µM (inactive); in the test on PC-3 it was 30.3 µM (inactive). The GI50 was > 100 µM (inactive) with COLO 205; 13 µM (inactive) with HOP-92; > 100 µM (inactive) in the test on SR; 13.3 µM (inactive) in the test on MDA-MB-231; 21 µM (inactive) with IGROV-1; 27.7 µM (inactive) with RXF 393. The GI50 with MOLT-4 is > 100 µM (inactive).

Consider `Clc1ccc(/C(=C\c2ccccc2)Cn2ccnc2)cc1`, for which the GI50 is 20.1 µM (inactive) with NCI-H460; 18 µM (inactive) with A549; 13.3 µM (inactive) with SK-MEL-28; 21 µM (inactive) in the test with SNB-19; 9.93 µM (inactive) in the test on K562; 13.6 µM (inactive) with NCI-H226. For the same molecule, the GI50 is 4.25 µM (inactive) in the test with SF-268; 24.5 µM (inactive) in the test with CCRF-CEM; 7.21 µM (inactive) in the test on CAKI-1; 19.6 µM (inactive) with M14; 20.1 µM (inactive) in the test on DU-145; 11.5 µM (inactive) with PC-3. The GI50 was 15.1 µM (inactive) with COLO 205; 14.8 µM (inactive) in the test on HOP-92; 3.46 µM (inactive) with SR; 11.1 µM (inactive) in the test on MDA-MB-231; 19.6 µM (inactive) in the test with IGROV-1; 17.3 µM (inactive) with RXF 393. The GI50 in the test with MOLT-4 was 21.1 µM (inactive).

As for `COc1ccc(/C=C2\CSC/C(=C\c3ccc(OC)c(OC)c3OC)C2=O)c(OC)c1OC`, the GI50 with NCI-H460 was 34.5 µM (inactive); in the test with OVCAR-3 it was 52.1 µM (inactive); with A549, > 100 µM (inactive); in the test on SK-MEL-28, 28.1 µM (inactive); in the test on SNB-19, > 100 µM (inactive); with K562, 23.1 µM (inactive). Further, the GI50 with NCI-H226 was > 100 µM (inactive); in the test on SF-268, 41.6 µM (inactive); in the test with CCRF-CEM, 12.9 µM (inactive); in the test with M14, 18.5 µM (inactive); with DU-145 it was > 100 µM (inactive); with PC-3 it was 47.3 µM (inactive). Besides, the GI50 with COLO 205 was 37.9 µM (inactive); in the test with HOP-92 it was 35.6 µM (inactive); in the test on SR, 26.9 µM (inactive); in the test on MDA-MB-231 it was 66.4 µM (inactive); with IGROV-1 it was 37.8 µM (inactive); in the test with RXF 393, 15.6 µM (inactive). Also, the GI50 in the test on MOLT-4 was > 10 µM (inactive).

On to `FC(F)(F)c1cc(N(C2c3ccccc3C=Cc3ccccc32)P(Cl)Cl)cc(C(F)(F)F)c1`, for which the GI50 in the test with OVCAR-3 is 16.4 µM (inactive); in the test on A549, 18.3 µM (inactive); in the test with SK-MEL-28, 25.6 µM (inactive); in the test with SNB-19, 21.8 µM (inactive); in the test with K562 it was 15.2 µM (inactive); in the test on NCI-H226, 19.1 µM (inactive). The GI50 was 17.2 µM (inactive) in the test with SF-268; 24 µM (inactive) in the test on CCRF-CEM; 21.9 µM (inactive) in the test on CAKI-1; 22.8 µM (inactive) with M14; 19.3 µM (inactive) in the test on DU-145; 22.7 µM (inactive) in the test on PC-3. The GI50 is 22.2 µM (inactive) in the test with COLO 205; 15.6 µM (inactive) in the test with HOP-92; 16 µM (inactive) with SR; 18.6 µM (inactive) in the test on MDA-MB-231; 26.2 µM (inactive) with IGROV-1; 13.8 µM (inactive) in the test on RXF 393. Further, the GI50 with MOLT-4 was 13.1 µM (inactive).
